Data: publication PMC6116705, “Design, synthesis, in vitro antiproliferative activity and apoptosis-inducing studies of 1-(3′,4′,5′-trimethoxyphenyl)-3-(2′-alkoxycarbonylindolyl)-2-propen-1-one derivatives obtained by a molecular hybridisation approach” (Journal of Enzyme Inhibition and Medicinal Chemistry, 2018)
Values joined by “and” are separate entries in the source; they are usually repeats but may differ in a detail not shown here. Equal entries are not always repeated. “Also recorded” adds a separate entry of the source.

Tests used:
[1] = test system: human peripheral blood mononuclear cells (PBMC); experiment: Cytotoxicity on normal PBMC (quiescent or PHA-activated); type: cell-based; settings: up to 10 μM, 24 h
Protocol: U-937 (human myeloid leukaemia) cells from DSMZ (German Collection of Microorganisms and Cell Cultures, Braunschweig, Germany) and U-937 cells overexpressing human Bcl-2 protein (designated U-937/Bcl-2, donated by Dr Jacqueline Bréard, INSERM U749, Faculté de Pharmacie Paris-Sud., Châtenay-Malabry, France) were cultured in RPMI-1640 medium containing 10% (v/v) heat-inactivated foetal bovine serum, 100 μg/mL streptomycin and 100 U/mL penicillin, incubated at 37 °C in a humidified atmosphere containing 5% CO2 as described. The functioning of U-937/Bcl-2 cells was tested using the cytotoxic agent 1-β-D-arabino-furanosylcytosine as previously described. Human peripheral blood mononuclear cells (PBMC) were isolated from heparin-anticoagulated blood of healthy volunteers by centrifugation with Ficoll-Paque Plus (GE Healthcare Bio-Sciences AB, Uppsala, Sweden). PBMC were also stimulated with phytohemagglutinin (2 μg/mL) for 48 h before the experimental treatment. The trypan blue dye exclusion method was used for counting the living/dead cells by a hematocytometer with 95% viability in all experiments. The cytotoxicity of compounds was evaluated by the colorimetric 3-(4,5-dimethyl-2-thiazolyl-)-2,5-diphenyl-2H-tetrazolium bromide (MTT) assay as previously described. […] After the addition of MTT (0.5 mg/mL), cells were incubated at 37 °C for 4 h. Sodium dodecyl sulphate (10% w/v) in 0.05 M HCl was added to the wells and then incubated at room temperature overnight in the dark. Absorbance was measured at 570 nm. […] Values are mean ± SE from at least three independent experiments, each performed in triplicate. Compounds were dissolved in DMSO and kept in the dark at 25 °C.

[2] = test system: tubulin (colchicine site); experiment: Inhibition of [3H]colchicine binding to tubulin; set-up: species or system bovine; settings: tubulin 1 µM, [3H]colchicine 5 µM, compound 5 µM
Protocol: (§1) To evaluate the effect of the compounds on tubulin assembly in vitro[40], varying concentrations of compounds were preincubated with 10 μM bovine brain tubulin in 0.8M monosodium glutamate (pH adjusted to 6.6 with HCl in a 2.0M stock solution) at 30 °C and then cooled to 0 °C. After addition of 0.4 mM GTP, the mixtures were transferred to 0 °C cuvettes in a recording spectrophotometer and warmed to 30 °C. Tubulin assembly was followed turbidimetrically at 350 nm. […] The capacity of the test compounds to inhibit colchicine binding to tubulin was measured as described. The reaction mixtures contained 1 μM tubulin, 5 μM [^3H]colchicine and 5 μM test compound.

bovine brain tubulin = experiment: Inhibition of tubulin polymerisation (turbidimetric tubulin assembly); type: biochemical
Protocol: as §1

U-937 cells = experiment: Cell cycle phase distribution and apoptosis, flow cytometry (propidium iodide) and fluorescence microscopy, U-937; type: cell-based, human
Protocol: (§2) Fluorescent microscopy and flow cytometric analysis of propidium iodide-stained cells were performed as described. Briefly, cells were harvested and fixed in 3% paraformaldehyde and incubated at room temperature for 10 min. The fixative was removed, and the cells were washed with PBS, resuspended in 30–50 μL of PBS containing 20 μg/mL bis-benzimide trihydrochloride (Hoechst 33258) and incubated at room temperature for 15 min. Stained nuclei were visualized using a Zeiss fluorescence microscope.
(§3) Flow cytometric analysis was carried out using a BD FACSVerse™ cytometer (BD Biosciences, San Jose, CA, USA).

U-937/Bcl-2 cells = experiment: Cell cycle phase distribution and apoptosis, flow cytometry (propidium iodide) and fluorescence microscopy, U-937/Bcl-2; type: cell-based, human
Protocol: as §2, §3

[3] = test system: human promyelocytic leukemia (HL-60) cells; experiment: Antiproliferative assay, cell counting (Coulter Counter), HL-60; type: cell-based; settings: Homo sapiens; HL-60, 72–96 h; read-out: IC50, inhibition of proliferation
Protocol: Human cervix carcinoma (HeLa), human colon carcinoma (HT29), human breast carcinoma (MCF-7) and human lymphoma (HL-60) cells (3–5 × 10^4 cells) and a serial (five-fold) dilution of the test compounds were added to a 96-well microtiter plate. The cells were incubated for 72–96 h (depending on the tumor cell line) at 37 °C in a humidified 5% CO2 atmosphere. At the end of the incubation period, the cells were counted in a Coulter Counter (Coulter Electronics Ltd, Harpenden Herts, UK). […] The IC50 values represent the average (±standard deviation) of at least two to four independent experiments.

`COC(=O)c1[nH]c2cc(OC)ccc2c1/C=C/C(=O)c1cc(OC)c(OC)c(OC)c1` [Compound 9e, (E)-Methyl 6-methoxy-3-(3-oxo-3-(3,4,5-trimethoxyphenyl)prop-1-en-1-yl)-1H-indole-2-carboxylate] was tested, and the “Toxicity to normal PBMC” value [1] was “devoid of significant cytotoxic activity; also recorded: no appreciable toxicity”, the “Colchicine binding % ±SD (inhibition)” value [2] was 29 ± 5% and the “fold less potent than CA-4 as inhibitor of tubulin polymerisation” value (bovine brain tubulin; ratio of tubulin assembly IC50 values) was 10 fold. The IC50 (bovine brain tubulin; tubulin 10 µM, 20 min at 30 °C, read-out: Tubulin assembly IC50±SD) was 6.2 ± 0.6 µM, the “% G1” value (U-937 cells; U-937, 24 h, 3 µM) was 43.2 ± 0.2% and the “% G2-M” value (U-937 cells; U-937, 24 h, 3 µM) was 24.5 ± 0.1%. The “% S” value (U-937 cells; U-937, 24 h, 3 µM) was 24.4 ± 0.1%, the “% Sub-G1” value (U-937 cells; U-937, 24 h, 3 µM) was 6.4 ± 0.4% and the “% G1” value (U-937 cells; U-937, 24 h, 10 µM) was 33.0 ± 2.1 %. For the same compound, the “% G2-M” value (U-937 cells; U-937, 24 h, 10 µM) was 23.2 ± 0.3%, the “% S” value (U-937 cells; U-937, 24 h, 10 µM) was 27.1 ± 0.5% and the “% Sub-G1” value (U-937 cells; U-937, 24 h, 10 µM) was 14.3 ± 1.6 %. The “% G1” value (U-937 cells; U-937, 48 h, 3 µM) was 53.6 ± 0.3%, the “% G2-M” value (U-937 cells; U-937, 48 h, 3 µM) was 16.5 ± 0.1% and the “% S” value (U-937 cells; U-937, 48 h, 3 µM) was 24.6 ± 0.3%. The “% Sub-G1” value (U-937 cells; U-937, 48 h, 3 µM) was 4.5 ± 0.2%, the “% G1” value (U-937 cells; U-937, 48 h, 10 µM) was 39.7 ± 1.1 % and the “% G2-M” value (U-937 cells; U-937, 48 h, 10 µM) was 17.6 ± 0.0%. For the same compound, the “% S” value (U-937 cells; U-937, 48 h, 10 µM) was 23.3 ± 0.1%, the “% Sub-G1” value (U-937 cells; U-937, 48 h, 10 µM) was 17.9 ± 1.2 % and the “% G1” value (U-937 cells; U-937, 72 h, 3 µM) was 52.0 ± 0.9 %. For the same compound, the “% G2-M” value (U-937 cells; U-937, 72 h, 3 µM) was 14.3 ± 0.2%, the “% S” value (U-937 cells; U-937, 72 h, 3 µM) was 21.2 ± 0.7% and the “% Sub-G1” value (U-937 cells; U-937, 72 h, 3 µM) was 10.8 ± 0.1%. The “% G1” value (U-937 cells; U-937, 72 h, 10 µM) was 44.5 ± 1.4 %, the “% G2-M” value (U-937 cells; U-937, 72 h, 10 µM) was 14.1 ± 0.4% and the “% S” value (U-937 cells; U-937, 72 h, 10 µM) was 21.4 ± 0.6%. The “% Sub-G1” value (U-937 cells; U-937, 72 h, 10 µM) was 18.4 ± 1.2 %, the “fold increase in the percentage of apoptotic (hypodiploid) cells” value (U-937/Bcl-2 cells; U-937/Bcl-2, 1 μM, 72 h, versus control) was about 20 fold and the “% G1” value (U-937/Bcl-2 cells; U-937/Bcl-2, 24 h, 0.3 µM) was 24.7 ± 0.5 %. The “% G2-M” value (U-937/Bcl-2 cells; U-937/Bcl-2, 24 h, 0.3 µM) was 40.1 ± 1.3 %, the “% S” value (U-937/Bcl-2 cells; U-937/Bcl-2, 24 h, 0.3 µM) was 23.2 ± 0.2% and the “% Sub-G1” value (U-937/Bcl-2 cells; U-937/Bcl-2, 24 h, 0.3 µM) was 9.8 ± 0.5 %. For the same compound, the “% G1” value (U-937/Bcl-2 cells; U-937/Bcl-2, 24 h, 1 µM) was 17.4 ± 0.2 %, the “% G2-M” value (U-937/Bcl-2 cells; U-937/Bcl-2, 24 h, 1 µM) was 47.3 ± 1.2 % and the “% S” value (U-937/Bcl-2 cells; U-937/Bcl-2, 24 h, 1 µM) was 18.1 ± 1.7 %. For the same compound, the “% Sub-G1” value (U-937/Bcl-2 cells; U-937/Bcl-2, 24 h, 1 µM) was 15% and 14.7 ± 0.7 %, the “% G1” value (U-937/Bcl-2 cells; U-937/Bcl-2, 48 h, 0.3 µM) was 23.0 ± 0.7 % and the “% G2-M” value (U-937/Bcl-2 cells; U-937/Bcl-2, 48 h, 0.3 µM) was 34.3 ± 0.5 %. For the same compound, the “% S” value (U-937/Bcl-2 cells; U-937/Bcl-2, 48 h, 0.3 µM) was 22.4 ± 0.2%, the “% Sub-G1” value (U-937/Bcl-2 cells; U-937/Bcl-2, 48 h, 0.3 µM) was 14.6 ± 0.4 % and the “% G1” value (U-937/Bcl-2 cells; U-937/Bcl-2, 48 h, 1 µM) was 13.0 ± 0.9 %. For the same compound, the “% G2-M” value (U-937/Bcl-2 cells; U-937/Bcl-2, 48 h, 1 µM) was 33.2 ± 0.9 %, the “% S” value (U-937/Bcl-2 cells; U-937/Bcl-2, 48 h, 1 µM) was 15.4 ± 0.1 % and the “% Sub-G1” value (U-937/Bcl-2 cells; U-937/Bcl-2, 48 h, 1 µM) was 28% and 28.0 ± 0.7 %. The “% G1” value (U-937/Bcl-2 cells; U-937/Bcl-2, 72 h, 0.3 µM) was 22.4 ± 0.4 %, the “% G2-M” value (U-937/Bcl-2 cells; U-937/Bcl-2, 72 h, 0.3 µM) was 31.3 ± 1.3 % and the “% S” value (U-937/Bcl-2 cells; U-937/Bcl-2, 72 h, 0.3 µM) was 21.8 ± 0.8%. For the same compound, the “% Sub-G1” value (U-937/Bcl-2 cells; U-937/Bcl-2, 72 h, 0.3 µM) was 17.6 ± 0.5 %, the “% G1” value (U-937/Bcl-2 cells; U-937/Bcl-2, 72 h, 1 µM) was 12.8 ± 0.5 % and the “% G2-M” value (U-937/Bcl-2 cells; U-937/Bcl-2, 72 h, 1 µM) was 23.1 ± 2.2%. For the same compound, the “% S” value (U-937/Bcl-2 cells; U-937/Bcl-2, 72 h, 1 µM) was 16.0 ± 0.7%, the “% Sub-G1” value (U-937/Bcl-2 cells; U-937/Bcl-2, 72 h, 1 µM) was 36% and 36.1 ± 3.3 % and the IC50 [3] was 18 ± 14 µM.
